In paper PMC8154419, “Druggable Hot Spots in the Schistosomiasis Cathepsin B1 Target Identified by Functional and Binding Mode Analysis of Potent Vinyl Sulfone Inhibitors” (ACS Infectious Diseases, 2020):
Values joined by “and” are separate entries in the source; they are usually repeats but may differ in a detail not shown here. Equal values may be shown once.

Each compound was assayed against SmCB1 (Schistosoma mansoni, UniProt Q8MNY2, T185A/T300A) (assay: SmCB1 kinetic inhibition assay (IC50) with fluorogenic substrate Cbz–Phe–Arg–AMC). Details: recombinant SmCB1, Cbz–Phe–Arg–AMC, pH 5.5; mean ± SE, triplicate; n.i.: no significant inhibition at 100 μM.
Chain of SmCB1 (Q8MNY2 87-340 T185A/T300A): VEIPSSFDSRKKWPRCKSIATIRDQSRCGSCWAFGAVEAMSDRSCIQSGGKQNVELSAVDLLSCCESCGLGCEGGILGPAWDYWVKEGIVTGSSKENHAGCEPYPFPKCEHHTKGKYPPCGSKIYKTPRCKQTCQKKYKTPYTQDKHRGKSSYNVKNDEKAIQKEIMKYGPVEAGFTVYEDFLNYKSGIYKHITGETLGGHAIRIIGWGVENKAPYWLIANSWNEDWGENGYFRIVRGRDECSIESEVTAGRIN
Format: biochemical
Text: Thirty-four peptidomimetic vinyl sulfone analogs (including vinyl sulfonamides and vinyl sulfonate esters) were explored as potential inhibitors of SmCB1 to infer the structural requirements of the inhibitor-binding subsites in the enzyme active site cleft. The compound scaffold is defined by positions P3 through P1′, and the substitutions were selected to provide a high diversity at P2 and P1′ (Table 1). These two positions were recently reported to display large differences in the subsite interaction energy in response to their structural modifications.[10] The compounds were screened in vitro against recombinant SmCB1, and their IC50 values were determined using a kinetic inhibition assay with the fluorogenic substrate Cbz–Phe–Arg–AMC.
Inhibition measurements were performed in triplicates in 96-well microplates (100 μL assay volume) at 37 °C. […] The kinetics of product release was continuously monitored in an Infinite M1000 microplate reader (Tecan) at excitation and emission wavelengths of 360 and 465 nm, respectively. The IC50 values were determined by nonlinear regression using GraFit software. To determine the inhibition constant k2nd, the enzyme (40 pM SmCB1 or 60 pM HuCB) was added to a mixture of the fluorogenic substrate Cbz–Phe–Arg–AMC (20 μM for SmCB1 and 33 μM for HuCB) and an inhibitor (0–1 μM) in the assay buffer under assay conditions as above. The hydrolysis of substrate was monitored for 30 min in a microplate reader as described above. An observed rate constant, kobs, was calculated at each inhibitor concentration by fitting the progress curve to the equation P = vi/kobs(1 – e^–kobst), where P is the product formation, vi is the initial velocity, and t is the reaction time. For both enzymes, kobs varied linearly with the inhibitor concentration showing that the dependence of kobs on the inhibitor concentration is nonsaturating. […] The second order rate constant, k2nd, was determined by fitting to the linear equation kobs = (k2nd[I])/(1 + [S]/KM), where [S] is the substrate concentration, [I] is the inhibitor concentration, and KM is the Michaelis–Menten constant. KM values determined for SmCB1 and HuCB were 25 and 38 μM, respectively.
Compound `O=C(N[C@H](/C=C/S(=O)(=O)c1ccccc1)CCc1ccccc1)[C@H](CCS(=O)(=O)c1ccccc1)NC(=O)N1CCOCC1` [CRA-009] has an IC50 of 186 ± 19 nM. Compound `O=C(N[C@H](/C=C/S(=O)(=O)c1ccccc1)CCc1ccccc1)[C@H](CS(=O)(=O)Cc1ccccc1OC(F)F)NC(=O)N1CCOCC1` [CRA-012] has an IC50 of 477 ± 43 nM. `CCC[C@@H](/C=C/S(=O)(=O)c1ccccc1)NC(=O)[C@H](CC1CCCCC1)NC=NS(=O)(=O)c1ccccc1` [CRA-359] showed an IC50 of 9990 ± 280 nM. `CCCC[C@@H](/C=C/S(=O)(=O)c1ccccc1)NC(=O)[C@H](Cc1cc(I)c(O)c(I)c1)NC(=O)OC(C)(C)C` [CRA-372] gave an IC50 of 6250 ± 322 nM. `CCCC[C@@H](/C=C/S(=O)(=O)c1ccccc1)NC(=O)[C@@H](N)Cc1cc(I)c(O)c(I)c1` [CRA-373] was tested, and the IC50 was 425 ± 46 nM. For `CCC[C@@H](/C=C/S(=O)(=O)c1ccccc1)NC(=O)[C@H](Cc1ccccc1Cl)NC1=NS(=O)(=O)c2ccccc21` [CRA-383], the IC50 was 10000 to 100000 nM. `CCC[C@@H](/C=C/S(=O)(=O)c1ccccc1)NC(=O)[C@H](CSCc1ccccn1)NC1=NS(=O)(=O)c2ccccc21` [CRA-393] showed an IC50 of 3450 ± 346 nM. For `O=C(N[C@@H](Cc1cc(I)c(O)c(I)c1)C(=O)N[C@H](/C=C/S(=O)(=O)c1ccccc1)CCc1ccccc1)c1ccc(N2CCOCC2)cc1` [CRA-422], the IC50 was 665 ± 98 nM. For `CCC[C@@H](/C=C/S(=O)(=O)c1ccccc1)NC(=O)[C@H](Cc1ccccc1)NC(=O)N1CCC(N2CCOCC2)CC1` [CRA-446], the IC50 was 44.6 ± 6.1 nM. With `CCC[C@@H](/C=C/S(=O)(=O)c1ccccc1)NC(=O)[C@H](Cc1ccc2ccccc2c1)NC(=O)N1CCC(N2CCOCC2)CC1` [CRA-547] the IC50 was ~40 nM and 39.2 nM. For `CCC[C@@H](/C=C/S(=O)(=O)c1ccccc1)NC(=O)[C@H](Cc1ccc(F)cc1)NC(=O)N1CCC(N2CCOCC2)CC1` [CRA-552], the IC50 was 202 ± 25 nM. With `CCCC[C@@H](/C=C/S(=O)(=O)c1ccccc1)NC(=O)[C@H](Cc1ccccc1)NC(=O)N1CCC(N2CCOCC2)CC1` [CRA-553] the IC50 was 13.2 ± 1.3 nM. Compound `O=C(N[C@H](/C=C/S(=O)(=O)c1ccccc1)CCc1ccccc1)[C@H](Cc1ccccc1)NC(=O)N1CCC(N2CCOCC2)CC1` [CRA-554] has an IC50 of 6 ± 0.89 nM. For `CCC[C@@H](/C=C/S(=O)(=O)c1ccccc1)NC(=O)C1(NC(=O)N2CCN(C)CC2)CCCCC1` [CRA-555], the “Inhibition IC50” value was “n.i”. For `CCC[C@@H](/C=C/S(=O)(=O)c1ccccc1)NC(=O)[C@H](Cc1c(F)cccc1F)NC(=O)c1ccc(-c2ccccc2Cl)cc1` [CRA-845], the “Inhibition IC50” value was “n.i”. `O=C(N[C@H](/C=C/S(=O)(=O)c1ccccc1)CCc1ccccc1)[C@H](CS(=O)(=O)Cc1ccccc1)NC(=O)N1CCOCC1` [CRA-891] gave an IC50 of 212 ± 10 nM. `CCCC[C@@H](/C=C/S(=O)(=O)c1ccccc1)NC(=O)[C@H](Cc1ccccc1)NC(=O)N1CCC(N2CCCCC2)CC1` [CRA-892] showed an IC50 of 7.5 ± 0.58 nM. For `C[C@@H](/C=C/S(=O)(=O)NCCc1ccccc1)NC(=O)[C@H](Cc1ccccc1)NC(=O)OCc1ccccc1` [WRR-186], the IC50 was 629 ± 57 nM. Work on `C[C@@H](/C=C/S(=O)(=O)NCc1ccc(F)cc1)NC(=O)[C@H](Cc1ccccc1)NC(=O)OCc1ccccc1` [WRR-196] yielded an IC50 of 1250 ± 173 nM. In the case of `C[C@@H](/C=C/S(=O)(=O)NCc1ccc(F)cc1F)NC(=O)[C@H](Cc1ccccc1)NC(=O)OCc1ccccc1` [WRR-197], the IC50 is reported as 1130 ± 120 nM. `C[C@@H](/C=C/S(=O)(=O)Oc1ccccc1)NC(=O)[C@H](Cc1ccccc1)NC(=O)OCc1ccccc1` [WRR-199] gave an IC50 of 2.55 ± 0.2 nM. `C[C@@H](/C=C/S(=O)(=O)NCc1ccc(Cl)cc1)NC(=O)[C@H](Cc1ccccc1)NC(=O)OCc1ccccc1` [WRR-201] was tested, and the IC50 was 541 ± 76 nM. Compound `CNS(=O)(=O)/C=C/[C@H](C)NC(=O)[C@H](Cc1ccccc1)NC(=O)OCc1ccccc1` [WRR-206] has an IC50 of 93.7 ± 7.3 nM. In the case of `O=C(N[C@@H](Cc1ccccc1)C(=O)N[C@H](/C=C/S(=O)(=O)c1ccccn1)CCc1ccccc1)OCc1ccccc1` [WRR-255], the IC50 is reported as 1.5 ± 0.13 nM. `O=C(N[C@@H](Cc1ccccc1)C(=O)N[C@H](/C=C/S(=O)(=O)CCc1ccccc1)CCc1ccccc1)OCc1ccccc1` [WRR-257] showed an IC50 of 9520 ± 607 nM. Compound `O=C(N[C@@H](Cc1ccccc1)C(=O)N[C@H](/C=C/S(=O)(=O)Oc1ccc([N+](=O)[O-])cc1)CCc1ccccc1)OCc1ccccc1` [WRR-258] has an IC50 of 50.1 ± 4.9 nM. `CN1CCN(C(=O)N[C@@H](Cc2ccccc2)C(=O)N[C@H](/C=C/S(=O)(=O)Oc2ccc(F)cc2)CCc2ccccc2)CC1` [WRR-353] gave an IC50 of 119 ± 16 nM. For `CCOC(=O)C1CCN(C(=O)N[C@@H](CC2CCCCC2)C(=O)N[C@H](/C=C/S(=O)(=O)c2ccccc2)CCc2ccccc2)CC1` [WRR-436], the IC50 was 72.1 ± 9.1 nM.
